Measurements reported in the METLIN SMRT retention time set (Domingo-Almenara et al. 2019).

Test: gradient 5% acetonitrile 3 min, to 50% in 2 min, to 85% in 15 min, held 3 min, 100 µL/min
Conditions: column: Zorbax Extend-C18 2.1 x 50 mm; eluents: water / acetonitrile, 0.1% formic acid
Method in brief: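 In both positive and negative ionization mode, a quadrupole time-of-flight mass spectrometer coupled to HPLC analyzed pure standards run in mixtures of ~100 molecules. The Zorbax Extend-C18 column (2.1 × 50 mm, 1.8 μm) was operated at 100 μL/min with water and acetonitrile, each containing 0.1% formic acid. The dead volume was 40 μL and the dwell volume 900 μL. Retention time came from adduct peaks that were computationally picked and individually inspected by hand.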

| RP-LC retention time | Structure (SMILES) |
| --- | --- |
| 787 s | O=C(CSc1nnc2c3cc(-c4ccc(F)cc4)nn3ccn12)NCc1ccco1 |
| 850 s | O=C(NCc1ccc(F)cc1)N1CCN(Cc2nc3cc(-c4ccccc4)ccc3o2)CC1 |
| 817 s | Cc1ccc(F)cc1S(=O)(=O)Nc1cccn2c(C3CCC3)nnc12 |
| 1020 s | CCc1nc(-c2csc(S(=O)(=O)N3CCC(C(=O)Nc4ccc(C)cc4)CC3)c2)no1 |
| 1050 s | Cn1c(=O)n(CC(=O)Nc2cccc(Cl)c2)c(=O)c2cnc(-c3ccccc3)nc21 |
| 699 s | CCc1cc(=O)n(CC(=O)Nc2ccc(OC)cc2)c(N2CCOCC2)n1 |
| 628 s | Cc1ccc2nc(C(=O)NCc3ccc4c(c3)OCO4)cn2c1 |
| 932 s | Cc1nn2c(CNS(=O)(=O)c3ccc(Cl)cc3)c(-c3ccccc3)nc2s1 |
| 922 s | CCOC(=O)c1ccccc1NC(=O)CCCn1nc(-c2ccc(F)cc2)ccc1=O |
| 676 s | CCNC(=O)c1[nH]c2ccc(F)cc2c1N1CCCC1=O |
| 955 s | Cc1nc(N2CCOCC2)c2c(C(=O)Nc3cccc(C(F)(F)F)c3)c(C)oc2n1 |
| 866 s | CCc1nn2c(CNC(=O)c3cccs3)c(-c3ccccc3)nc2s1 |
| 674 s | O=C(CC1CCCC1)NCc1cccnc1-c1ccc(F)cc1 |
| 1030 s | CCn1c(C)c(C(=O)C(C)N(Cc2ccc(F)cc2)C(=O)C2CC2)c(C)c1C(=O)OC (centres undefined) |
| 874 s | COCCCn1c(=O)c2ccccc2n(Cc2nc(-c3ccccc3OC)no2)c1=O |
| 668 s | O=C(Nc1ccc(F)cc1F)N1CCCC(Cn2c(C3CC3)nc3cccnc32)C1 (centres undefined) |
| 974 s | Cc1nn2c(CNS(=O)(=O)Cc3ccc(C)c(C)c3)c(-c3ccccc3)nc2s1 |
| 604 s | Cc1ccc(C(=O)NCc2ccc3c(c2)ncn3C)s1 |
| 1100 s | Cc1cc(=O)n(CC(=O)Nc2ccccc2)c(-c2ccc(Cl)cc2)n1 |
| 882 s | COc1ccc(Cl)cc1NC(=O)N1CCC2(CC1)N=C(c1cccc(F)c1)C(=O)N2 |
| 1140 s | C=CCn1c(=O)c2ccccc2n(Cc2nc(-c3ccc(F)c(Cl)c3)no2)c1=O |
| 923 s | CC(C)CCNC(=O)C1CCN(S(C)(=O)=O)c2cc(Cl)ccc2O1 (centres undefined) |
| 697 s | Cc1cccc2nnc(N3CCC(C(=O)Nc4cccc(F)c4)CC3)n12 |
| 761 s | CCOC(=O)C1=C(C)NC(=O)NC1c1ccc(-c2cccc([N+](=O)[O-])c2)o1 (centres undefined) |
| 1040 s | CCCn1ccc2oc(C)c(C(=O)NCc3cc(F)ccc3F)c2c1=O |
| 920 s | Cc1cc(F)ccc1NC(=O)CN1C(=O)CCc2cc(S(=O)(=O)N3CCCCC3C)ccc21 (centres undefined) |
| 613 s | CCOC(=O)CNC(=O)Nc1ncc(-c2ccccc2)n1C |
| 805 s | CCCCN1C(=O)CN(S(=O)(=O)c2ccccc2)CC1(C)C(=O)NCc1ccc(C)cc1 (centres undefined) |
| 705 s | Cc1cccc(CNC(=O)c2cn3ccncc3n2)c1 |
| 1000 s | CCCn1c(=O)sc2cc(S(=O)(=O)N3CCC(C(=O)Nc4ccccc4OC)CC3)ccc21 |

Further lines, the compound ahead of its results:

| Structure (SMILES) | RP-LC retention time |
| --- | --- |
| O=C(NC1CCCC1)c1cc(N2CCCC2)n2nccc2n1 | 908 s |
| Cc1ccc(-c2nc3cnccn3c2NCCC(=O)NCc2ccco2)cc1 | 684 s |
| CCCn1c(=O)c(N2CCN(C(=O)C3CC3)CC2)nc2ccccc21 | 912 s |
| Cc1nc2ccccc2c(=O)n1-c1ccc(NC(=O)c2cnccn2)cc1 | 682 s |
| CCOc1ccc(NC(=O)NCCc2cn(CC)c3ncccc23)cc1 | 704 s |
| Cc1ccccc1NC(=O)C1CC(=O)N(c2ccc3c(c2)CCN3C(=O)C2CCC2)C1 (centres undefined) | 803 s |
| CCOC(=O)C(NC(=O)C1CCCN1C(=O)OCc1ccccc1)C(=O)OCC (centres undefined) | 855 s |
| CCNC(=O)CCc1nc2ccccc2n(CC(=O)Nc2ccc(C(=O)OCC)cc2)c1=O | 764 s |
| CNC(=O)C1CCCN(c2nc3ncn(CC(=O)Nc4cc(C)cc(C)c4)c(=O)c3s2)C1 (centres undefined) | 694 s |
| O=C(C1=NN(Cc2ccccc2)c2cc(Cl)ccc2S1(=O)=O)N1CCOCC1 | 864 s |
| CN(C)S(=O)(=O)c1ccc(-c2nnc(C(=O)NCCN3CCCC3)o2)cc1 | 574 s |
| COc1cc(CN2CC(F)(F)C[C@H]2c2nnc(C3CC3)o2)ccc1F | 931 s |
| O=C(C1CCCN(c2nnc3ccc(C(F)(F)F)cn23)C1)N1CCCCC1 (centres undefined) | 670 s |
| Cc1ccc(-n2ncc3c(N4CCN(C)CC4)ncnc32)cc1C | 648 s |
| Cc1cc(C)c(NC(=O)Cn2cc3c(n2)CCCC3)c(C)c1 | 969 s |
| Cc1cccc(C)c1NC(=O)N(C)CC1CCOC1 (centres undefined) | 666 s |
| Cn1cc(S(=O)(=O)N2CCCCC2)cc1C(=O)NC1CCCCC1 | 953 s |
| CCc1cc(N2CCN(C(=O)c3cccc(C#N)c3)CC2)nc2nncn12 | 589 s |
| Cc1nc(CSc2ncnc3sc(C)c(C)c23)cs1 | 988 s |
| CCOC(=O)C1CCN(c2cc(-n3nc(C)cc3C)ncn2)CC1 | 1000 s |

| Structure (SMILES) | RP-LC retention time |
| --- | --- |
| Cc1cccc(S(=O)(=O)N2CC(F)(F)C[C@H]2CN2CCc3ccccc3C2)c1 | 773 s |
| CC(C)n1cnc(S(=O)(=O)N2CCC(C(=O)NC3CCCCCCC3)CC2)c1 | 827 s |
| O=C([C@H]1C[C@@H](F)CN1S(=O)(=O)c1ccc(F)c(Cl)c1)N1CCOCC1 | 731 s |
| CCOc1cc(=O)n2c(c1C(=O)Nc1cc(OC)c(OC)c(OC)c1)CCCC2 | 967 s |
| O=S(=O)(c1ccc(-c2cc(C(F)(F)F)on2)o1)N1CCN(c2ncccn2)CC1 | 1060 s |
| COc1cccc(N2CCN(Cc3nc(-c4ccc(N5CCCCC5)nc4)no3)CC2)c1 | 930 s |
| CCOC(=O)c1nc(N2CCN(C3CCCCC3)CC2)c2ccccc2n1 | 614 s |
| Cc1sc(-c2noc(C3CC3)n2)cc1S(=O)(=O)N1CCC(C(=O)NC2CCCCC2)CC1 | 1020 s |
| CC(=O)Nc1ccc(OCC(=O)N(C)Cc2ccccc2)nc1 | 544 s |
| O=C(Cn1nc2nc(N3CCCC3)ccn2c1=O)N1CCN(c2ccc(F)cc2)CC1 | 661 s |
| Cc1cn(C)c(CC(=O)NCCCN2CCN(C)CC2)c1C(=O)O | 561 s |
| O=C(c1cccc(N2CCNC(c3ccccc3)C2)n1)N1CCCN(c2ncccn2)CC1 (centres undefined) | 609 s |
| CCOC(=O)CCNC(=O)N1CCN(Cc2nnnn2-c2ccc(F)c(F)c2)CC1 | 688 s |
| CC1CCCN(CCNC(=O)C2CCc3nc(N4CCOCC4)ncc3C2)C1 (centres undefined) | 557 s |
| CCn1nccc1C(=O)N1CCCN(c2nnc3ccccn23)CC1 | 879 s |
| CS(=O)(=O)Nc1ccc(-c2noc(-c3cnccn3)n2)cc1 | 686 s |
| O=C(Cn1c(-c2cccnc2)nc2ccccc21)Nc1ccc(OC(F)(F)F)cc1 | 853 s |
| CCc1nnc2ccc(-c3noc(Cc4cc(OC)cc(OC)c4)n3)cn12 | 844 s |
| Cc1cc(C)cc(NC(=O)C2CCN(S(C)(=O)=O)c3cc(Cl)ccc3O2)c1 (centres undefined) | 1020 s |
| O=C(Nc1ccc2c(c1)OCCO2)C1CCCN(c2ncnc3c2nc2n3CCCCC2)C1 (centres undefined) | 750 s |

| Structure (SMILES) | RP-LC retention time |
| --- | --- |
| Cc1sc(-c2cc(C(F)(F)F)on2)cc1S(=O)(=O)Nc1ccccc1Cl | 1180 s |
| CCOc1ccc(C2=NC3(CCN(C(C)C)CC3)NC(c3cc(Br)ccc3O)C2)cc1 (centres undefined) | 654 s |
| COC(=O)c1ccccc1Sc1c(-c2ccccc2)nc2ncccn12 | 875 s |
| Cc1noc(C)c1CCC(=O)N1CCC(c2nc(C3CC3)n[nH]2)CC1 | 564 s |
| CCC1Oc2ccc(S(=O)(=O)N3CCC(C(=O)N4CCCCCC4)CC3)cc2NC1=O (centres undefined) | 842 s |
| C#CCSc1nc2sc(C)c(C)c2c(=O)n1C | 983 s |
| CCN(CC)CCCNC(=O)Cn1c2ccccc2c2cnn(C)c(=O)c21 | 596 s |
| CCOC(=O)C1C(=O)C=C(c2cccs2)CC1c1ccc(OCC)cc1 (centres undefined) | 1060 s |
| Cc1ccc(CNC(=O)C2(C)CCCN(C(=O)Nc3ccc(C)cc3Cl)C2)cc1 (centres undefined) | 1080 s |
| COc1ccc2c(c1)CCc1sc(NC(=O)c3cc(Cl)ccc3OC)nc1-2 | 1270 s |
| Cc1cccc(Oc2cc(N3CCC(C(=O)NCCCOC(C)C)CC3)ncn2)c1C | 883 s |
| Clc1ccc(Nc2nc(NCCCn3ccnc3)nc3nc[nH]c23)cc1 | 536 s |
| CCC(C)(C)NS(=O)(=O)c1ccc(-c2c(C)noc2C)cc1 | 939 s |
| Cc1cc(=O)oc2cc(OS(C)(=O)=O)ccc12 | 782 s |
| CC(NC(=O)C1CCCN(c2nc3ccsc3c(=O)n2Cc2ccccc2)C1)c1ccc(F)cc1 (centres undefined) | 951 s |
| Cc1ccc(NS(=O)(=O)c2cc(-c3cc(C(F)(F)F)on3)sc2C)cc1Cl | 1190 s |
| COc1ccc(NC(=O)Cn2c(=O)nc(N3CCC(C)CC3)c3ccccc32)c(OC)c1 | 831 s |
| CCOC(=O)c1nc(NCCCN2CCN(Cc3ccccc3)CC2)c2ccccc2n1 | 588 s |
| COc1ccc(C(=O)Nc2nc(-c3ccc4c(c3)NC(=O)CO4)c(C)s2)cc1 | 881 s |
